Results as given in patent US20250163104A1, “MACROCYCLIC IMMUNOMODULATORS” (priority 2021, published 2025).
Where a SMILES comes first, the peptide text is derived from it. Bridges are numbered along the chain shown (N, C = ends). [ ]: non-standard residue; d: D form. The star is where a group is joined. Phe(4-COOH) = N[C@@H](Cc1ccc(C(=O)O)cc1)C(=O)O; Bip = N[C@@H](Cc1ccc(-c2ccccc2)cc1)C(=O)O; aIle = CC[C@@H](C)[C@H](N)C(=O)O; 4Pal = N[C@@H](Cc1ccncc1)C(=O)O; Cha = N[C@@H](CC1CCCCC1)C(=O)O; dCha = N[C@H](CC1CCCCC1)C(=O)O; Carboxymethyl = O=C(O)C*; Orn = NCCC[C@H](N)C(=O)O; Dab = NCC[C@H](N)C(=O)O; Dap = NC[C@H](N)C(=O)O

These compounds were tested against T1, human PD-1 / PD-L1-Ig binding on Jurkat cell line over-expressing human PD-1 (Jurkat-PD-1) (Homo sapiens, UniProt Q15116) (assay: Jurkat-PD-1 Cell Binding High-Content Screening Assay (CBA)). Settings: Jurkat-PD-1 cells, PE-labeled PD-L1-Ig 20 nM final; read-out: Jurkat HPD1_PDL1 IC50.
T1 construct: expressed in transfected cells; host or cells: Jurkat
T1 sequence (Q15116 25-288): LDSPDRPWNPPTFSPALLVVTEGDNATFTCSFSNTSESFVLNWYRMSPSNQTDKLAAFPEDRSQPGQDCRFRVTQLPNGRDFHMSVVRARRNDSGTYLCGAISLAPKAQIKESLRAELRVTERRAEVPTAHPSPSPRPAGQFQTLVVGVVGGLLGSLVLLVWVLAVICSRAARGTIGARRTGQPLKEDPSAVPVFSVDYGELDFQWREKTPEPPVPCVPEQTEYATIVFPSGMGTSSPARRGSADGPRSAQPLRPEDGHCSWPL
Type: cell-based
How it was run: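 Jurkat cells over-expressing human PD-1, in DMEM/10% FCS, pre-incubated with compound 2 h at 37° C. PE-labeled human PD-L1-Ig (20 nM final) added for 1 h; cells fixed in paraformaldehyde with Hoechst 33342 nuclear stain, washed, and bound fluorescence quantified by high-content imaging.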
For `CC[C@@H](C)[C@@H]1NC(=O)[C@H](Cc2ccc(-c3ccccc3)cc2)NC(=O)[C@H](C(C)C)NC(=O)[C@H](Cc2c[nH]c3ccccc23)NC(=O)[C@H](CC(=O)O)NC(=O)[C@H](Cc2ccncc2)NC(=O)[C@H](Cc2ccc(OCC(=O)O)cc2)NC(=O)CSC[C@@H](C(=O)N[C@@H](C)C(N)=O)NC(=O)[C@H]([C@@H](C)O)NC(=O)[C@H](C(C)C)NC(=O)[C@H](CC2CCCCC2)NC(=O)[C@H](CCN)NC(=O)[C@@H](CC2CCCCC2)NC(=O)[C@H](CCCN)NC1=O` [Compound 1629] ({CH2CO}-Y(Carboxymethyl)[4Pal]DWV[Bip][aIle][Orn][dCha][Dab][Cha]VTCA-NH2; thioether N-14), the IC50 was 19.9 nM. With `CC[C@@H](C)[C@@H]1NC(=O)[C@H](Cc2ccc(-c3ccccc3)cc2)NC(=O)[C@H](C(C)C)NC(=O)[C@H](Cc2c[nH]c3ccccc23)NC(=O)[C@H](CC(=O)O)NC(=O)[C@H](Cc2ccncc2)NC(=O)[C@H](CN)NC(=O)CSC[C@@H](C(=O)N[C@@H](C)C(N)=O)NC(=O)[C@H]([C@@H](C)O)NC(=O)[C@H](C(C)C)NC(=O)[C@H](CC2CCCCC2)NC(=O)[C@H](CCN)NC(=O)[C@@H](CC2CCCCC2)NC(=O)[C@H](CCCN)NC1=O` [Compound 1630] ({CH2CO}-[Dap][4Pal]DWV[Bip][aIle][Orn][dCha][Dab][Cha]VTCA-NH2; thioether N-14) the IC50 was 48.3 nM. `CC[C@@H](C)[C@@H]1NC(=O)[C@H](Cc2ccc(-c3ccccc3)cc2)NC(=O)[C@H](C(C)C)NC(=O)[C@H](Cc2c[nH]c3ccccc23)NC(=O)[C@H](CC(=O)O)NC(=O)[C@H](Cc2ccc(O)cc2)NC(=O)[C@H](CC(N)=O)NC(=O)CSC[C@@H](C(=O)N[C@@H](C)C(N)=O)NC(=O)[C@H]([C@@H](C)O)NC(=O)[C@H](C(C)C)NC(=O)[C@H](CC2CCCCC2)NC(=O)[C@H](CCN)NC(=O)[C@@H](CC2CCCCC2)NC(=O)[C@H](CCCN)NC1=O` [Compound 1631] ({CH2CO}-NYDWV[Bip][aIle][Orn][dCha][Dab][Cha]VTCA-NH2; thioether N-14) gave an IC50 of 44.1 nM. With `CC(C)[C@@H]1NC(=O)[C@H](Cc2c[nH]c3ccccc23)NC(=O)[C@H](CC(=O)O)NC(=O)[C@H](Cc2ccc(C(=O)O)cc2)NC(=O)[C@H](Cc2ccncc2)NC(=O)CSC[C@@H](C(=O)N[C@@H](C)C(N)=O)NC(=O)[C@H]([C@@H](C)O)NC(=O)[C@H](C(C)C)NC(=O)[C@H](CC2CCCCC2)NC(=O)[C@H](CCN)NC(=O)[C@@H](CC2CCCCC2)NC(=O)[C@H](CCCN)NC(=O)[C@H](C(C)C)NC(=O)[C@H](Cc2ccc(-c3ccccc3)cc2)NC1=O` [Compound 1632] ({CH2CO}-[4Pal][Phe(4-COOH)]DWV[Bip]V[Orn][dCha][Dab][Cha]VTCA-NH2; thioether N-14) the IC50 was 15.6 nM. In the case of `CC(C)[C@@H]1NC(=O)[C@H](Cc2c[nH]c3ccccc23)NC(=O)[C@H](CC(=O)O)NC(=O)[C@H](Cc2ccc(OCC(=O)O)cc2)NC(=O)[C@H](Cc2ccc(OCC(=O)O)cc2)NC(=O)CSC[C@@H](C(=O)N[C@@H](C)C(N)=O)NC(=O)[C@H]([C@@H](C)O)NC(=O)[C@H](C(C)C)NC(=O)[C@H](CC2CCCCC2)NC(=O)[C@H](CCN)NC(=O)[C@@H](CC2CCCCC2)NC(=O)[C@H](CCCN)NC(=O)[C@H](C(C)C)NC(=O)[C@H](Cc2ccc(-c3ccccc3)cc2)NC1=O` [Compound 1633] ({CH2CO}-Y(Carboxymethyl)Y(Carboxymethyl)DWV[Bip]V[Orn][dCha][Dab][Cha]VTCA-NH2; thioether N-14), the IC50 is reported as 20.2 nM. `CC(C)[C@@H]1NC(=O)[C@H](Cc2c[nH]c3ccccc23)NC(=O)[C@H](CC(=O)O)NC(=O)[C@H](Cc2ccc(C(=O)O)cc2)NC(=O)[C@H](Cc2ccc(OCC(=O)O)cc2)NC(=O)CSC[C@@H](C(=O)N[C@@H](C)C(N)=O)NC(=O)[C@H]([C@@H](C)O)NC(=O)[C@H](C(C)C)NC(=O)[C@H](CC2CCCCC2)NC(=O)[C@H](CCN)NC(=O)[C@@H](CC2CCCCC2)NC(=O)[C@H](CCCN)NC(=O)[C@H](C(C)C)NC(=O)[C@H](Cc2ccc(-c3ccccc3)cc2)NC1=O` [Compound 1634] ({CH2CO}-Y(Carboxymethyl)[Phe(4-COOH)]DWV[Bip]V[Orn][dCha][Dab][Cha]VTCA-NH2; thioether N-14) showed an IC50 of 20.3 nM. With `CC(C)[C@@H]1NC(=O)[C@H](Cc2c[nH]c3ccccc23)NC(=O)[C@H](CC(=O)O)NC(=O)[C@H](Cc2ccc(OCC(=O)O)cc2)NC(=O)[C@H](CN)NC(=O)CSC[C@@H](C(=O)N[C@@H](C)C(N)=O)NC(=O)[C@H]([C@@H](C)O)NC(=O)[C@H](C(C)C)NC(=O)[C@H](CC2CCCCC2)NC(=O)[C@H](CCN)NC(=O)[C@@H](CC2CCCCC2)NC(=O)[C@H](CCCN)NC(=O)[C@H](C(C)C)NC(=O)[C@H](Cc2ccc(-c3ccccc3)cc2)NC1=O` [Compound 1635] ({CH2CO}-[Dap]Y(Carboxymethyl)DWV[Bip]V[Orn][dCha][Dab][Cha]VTCA-NH2; thioether N-14) the IC50 was 18.1 nM. Work on `CC(C)[C@@H]1NC(=O)[C@H](Cc2c[nH]c3ccccc23)NC(=O)[C@H](CC(=O)O)NC(=O)[C@H](Cc2ccc(OCC(=O)O)cc2)NC(=O)[C@H](Cc2ccncc2)NC(=O)CSC[C@@H](C(=O)N[C@@H](C)C(N)=O)NC(=O)[C@H]([C@@H](C)O)NC(=O)[C@H](C(C)C)NC(=O)[C@H](CC2CCCCC2)NC(=O)[C@H](CCN)NC(=O)[C@@H](CC2CCCCC2)NC(=O)[C@H](CCCN)NC(=O)[C@H](C(C)C)NC(=O)[C@H](Cc2ccc(-c3ccccc3)cc2)NC1=O` [Compound 1636] ({CH2CO}-[4Pal]Y(Carboxymethyl)DWV[Bip]V[Orn][dCha][Dab][Cha]VTCA-NH2; thioether N-14) yielded an IC50 of 19.7 nM. Work on `CC(C)[C@@H]1NC(=O)[C@H](Cc2c[nH]c3ccccc23)NC(=O)[C@H](CC(=O)O)NC(=O)[C@H](Cc2ccncc2)NC(=O)[C@H](Cc2ccc(OCC(=O)O)cc2)NC(=O)CSC[C@@H](C(=O)N[C@@H](C)C(N)=O)NC(=O)[C@H]([C@@H](C)O)NC(=O)[C@H](C(C)C)NC(=O)[C@H](CC2CCCCC2)NC(=O)[C@H](CCN)NC(=O)[C@@H](CC2CCCCC2)NC(=O)[C@H](CCCN)NC(=O)[C@H](C(C)C)NC(=O)[C@H](Cc2ccc(-c3ccccc3)cc2)NC1=O` [Compound 1637] ({CH2CO}-Y(Carboxymethyl)[4Pal]DWV[Bip]V[Orn][dCha][Dab][Cha]VTCA-NH2; thioether N-14) yielded an IC50 of 32.7 nM. `CC(C)[C@@H]1NC(=O)[C@H](Cc2c[nH]c3ccccc23)NC(=O)[C@H](CC(=O)O)NC(=O)[C@H](Cc2ccncc2)NC(=O)[C@H](CN)NC(=O)CSC[C@@H](C(=O)N[C@@H](C)C(N)=O)NC(=O)[C@H]([C@@H](C)O)NC(=O)[C@H](C(C)C)NC(=O)[C@H](CC2CCCCC2)NC(=O)[C@H](CCN)NC(=O)[C@@H](CC2CCCCC2)NC(=O)[C@H](CCCN)NC(=O)[C@H](C(C)C)NC(=O)[C@H](Cc2ccc(-c3ccccc3)cc2)NC1=O` [Compound 1638] ({CH2CO}-[Dap][4Pal]DWV[Bip]V[Orn][dCha][Dab][Cha]VTCA-NH2; thioether N-14) gave an IC50 of 28.6 nM. `CC(C)[C@@H]1NC(=O)[C@H](Cc2c[nH]c3ccccc23)NC(=O)[C@H](CC(=O)O)NC(=O)[C@H](Cc2ccc(O)cc2)NC(=O)[C@H](CC(N)=O)NC(=O)CSC[C@@H](C(=O)N[C@@H](C)C(N)=O)NC(=O)[C@H]([C@@H](C)O)NC(=O)[C@H](C(C)C)NC(=O)[C@H](CC2CCCCC2)NC(=O)[C@H](CCN)NC(=O)[C@@H](CC2CCCCC2)NC(=O)[C@H](CCCN)NC(=O)[C@H](C(C)C)NC(=O)[C@H](Cc2ccc(-c3ccccc3)cc2)NC1=O` [Compound 1639] ({CH2CO}-NYDWV[Bip]V[Orn][dCha][Dab][Cha]VTCA-NH2; thioether N-14) gave an IC50 of 35.8 nM.
